Data on 19 compounds can be found in patent publication US20240365736A1, “COMPOSITIONS AND METHODS FOR TARGETED DEGRADATION OF PROTEINS IN A PLANT CELL” (Oerth Bio LLC, priority 2021, published 2024).

Structures are written as SMILES.

For the experiment, the system named is Matricaria recutita, Diplotaxis tenuifolia, Agrostis spp., Poa annua, or Arabidopsis thaliana. Nature of the experiment: Plant phenotyping assay (herbicidal phenotypes, 96-well plates). Also: key: '+++' is highly active; '++' is moderately active; '+' is weakly active; '−' is inactive. Format: in vivo. To be noted: visual score of herbicidal phenotypes after seven days; 238, 475, 950, and 1900 g ai/ha (50-400 uM). As to the method:
Seeds of Matricaria recutita, Diplotaxis tenuifolia, Agrostis spp., Poa annua, or Arabidopsis thaliana were sown into 96-well plates containing 200 μl of growth media [0.5× Murashige and Skoog (MS) basal media (Sigma-Aldrich), 2.5 mM 2-(N-morpholino) ethanesulfonic acid (MES—Sigma-Aldrich), 0.7 g/L Phytagar (Invitrogen); pH 5.7]. Three to five seeds were distributed per well. Plates were placed under fifteen hours of light at 23° C., 65% humidity in a controlled environment growth chamber. After approximately three days, test compounds and controls were mixed with acetone and emulsified with an equal volume of 3% methyl ester of rapeseed oil (Mero), and applied to plants at concentrations of 238, 475, 950, and 1900 g ai/ha (50-400 uM).
In the case of `COc1cnc(OC)n2nc(NS(=O)(=O)c3c(OCCCC4CCN(CCOCCOCCOc5ccc6c(c5)C(=O)N(C5CCC(=O)NC5=O)C6=O)CC4)cccc3C(F)(F)F)nc12` (stereo not shown) [Compound 4-N, N-(5,8-Dimethoxy-[1,2,4]triazolo[1,5-c]pyrimidin-2-yl)-2-(3-(1-(2-(2-(2-((2-(2,6-dioxopiperidin-3-yl)-1,3-dioxoisoindolin-5-yl)oxy)ethoxy)ethoxy)ethyl)piperidin-4-yl)propoxy)-6-(trifluoromethyl)benzenesulfonamide], the “Plant Activity” value is “−”.
The value for `COc1cnc(OC)n2nc(NS(=O)(=O)c3c(OC4CCN(CCOCCOCCOCCN5CCN(c6ccc7c(c6)C(=O)N(C6CCC(=O)NC6=O)C7=O)CC5)CC4)cccc3C(F)(F)F)nc12` (stereo not shown) [Compound 4-O, N-(5,8-Dimethoxy-[1,2,4]triazolo[1,5-c]pyrimidin-2-yl)-2-((1-(2-(2-(2-(2-(4-(2-(2,6-dioxopiperidin-3-yl)-1,3-dioxoisoindolin-5-yl)piperazin-1-yl)ethoxy)ethoxy)ethoxy)ethyl)piperidin-4-yl)oxy)-6-(trifluoromethyl)benzenesulfonamide] was “−”; that for `COc1cnc(OC)n2nc(NS(=O)(=O)c3c(OCCOCCN4CCN(c5ccc6c(c5)C(=O)N(C5CCC(=O)NC5=O)C6=O)CC4)cccc3C(F)(F)F)nc12` (stereo not shown) [Compound 4-P, N-(5,8-dimethoxy-[1,2,4]triazolo[1,5-c]pyrimidin-2-yl)-2-(2-(2-(4-(2-(2,6-dioxopiperidin-3-yl)-1,3-dioxoisoindolin-5-yl)piperazin-1-yl)ethoxy)ethoxy)-6-(trifluoromethyl)benzenesulfonamide] was “+”; that for `COc1cnc(OC)n2nc(NS(=O)(=O)c3c(OCCOCCOCCOCCCN4CCN(c5ccc6c(c5)C(=O)N(C5CCC(=O)NC5=O)C6=O)CC4)cccc3C(F)(F)F)nc12` (stereo not shown) [Compound 4-Q, N-(5,8-Dimethoxy-[1,2,4]triazolo[1,5-c]pyrimidin-2-yl)-2-(2-(2-(2-(3-(4-(2-(2,6-dioxopiperidin-3-yl)-1,3-dioxoisoindolin-5-yl)piperazin-1-yl)propoxy)ethoxy)ethoxy)ethoxy)-6-(trifluoromethyl)benzenesulfonamide] was “++”.
With `COc1cnc(OC)n2nc(NS(=O)(=O)c3c(OCCOCCOCCOCCOCCCN4CCN(c5ccc6c(c5)C(=O)N(C5CCC(=O)NC5=O)C6=O)CC4)cccc3C(F)(F)F)nc12` (stereo not shown) [Compound 4-R, N-(5,8-Dimethoxy-[1,2,4]triazolo[1,5-c]pyrimidin-2-yl)-2-((15-(4-(2-(2,6-dioxopiperidin-3-yl)-1,3-dioxoisoindolin-5-yl)piperazin-1-yl)-3,6,9,12-tetraoxapentadecyl)oxy)-6-(trifluoromethyl)benzenesulfonamide] the entry was “−”.
As for `COc1cnc(OC)n2nc(NS(=O)(=O)c3c(OCCOCCN4CC(OCCCN5CCN(c6ccc7c(c6)C(=O)N(C6CCC(=O)NC6=O)C7=O)CC5)C(F)(F)C4)cccc3C(F)(F)F)nc12` (stereo not shown) [Compound 4-S, N-(5,8-Dimethoxy-[1,2,4]triazolo[1,5-c]pyrimidin-2-yl)-2-(2-(2-(4-(3-(4-(2-(2,6-dioxopiperidin-3-yl)-1,3-dioxoisoindolin-5-yl)piperazin-1-yl)propoxy)-3,3-difluoropyrrolidin-1-yl)ethoxy)ethoxy)-6-(trifluoromethyl)benzenesulfonamide], the “Plant Activity” value is recorded as “++”.
With `CCO/N=C(\CC)C1=C(O)CC(c2ccc(OCCOCCOCCOc3ccc4c(c3)C(=O)N(C3CCC(=O)NC3=O)C4=O)cc2)CC1=O` (stereo not shown) [Compound 5, 2-(2,6-dioxo-3-piperidyl)-5-[2-[2-[2-[4-[4-[(E)-N-ethoxy-C-ethyl-carbonimidoyl]-3-hydroxy-5-oxo-cyclohex-3-en-1-yl]phenoxy]ethoxy]ethoxy]ethoxy]isoindoline-1,3-dione] the entry was “+”; with `CCC(=O)C1=C(O)CC(c2ccc(OCCOCCOCCN3CCN(c4ccc5c(c4)C(=O)N(C4CCC(=O)NC4=O)C5=O)CC3)cc2)CC1=O` (stereo not shown) [Compound 5-A, 2-(2,6-Dioxopiperidin-3-yl)-5-(4-(2-(2-(2-((5′-hydroxy-3′-oxo-4′-propionyl-1′,2′,3′,6′-tetrahydro-[1,1′-biphenyl]-4-yl)oxy)ethoxy)ethoxy)ethyl)piperazin-1-yl)isoindoline-1,3-dione], “−”; with `CCO/N=C(\CC)C1=C(O)CC(c2ccc(OCCOCCOCCN3CCN(c4ccc5c(c4)C(=O)N(C4CCC(=O)NC4=O)C5=O)CC3)cc2)CC1=O` (stereo not shown) [Compound 5-B, (E)-2-(2,6-Dioxopiperidin-3-yl)-5-(4-(2-(2-(2-((4′-(1-(ethoxyimino)propyl)-5′-hydroxy-3′-oxo-1′,2′,3′,6′-tetrahydro-[1,1′-biphenyl]-4-yl)oxy)ethoxy)ethoxy)ethyl)piperazin-1-yl)isoindoline-1,3-dione], “+”.
The value for `CCO/N=C(\CC)C1=C(O)CC(c2ccc(OC3CCN(CCOCCOCCOCCN4CCN(c5ccc6c(c5)C(=O)N(C5CCC(=O)NC5=O)C6=O)CC4)CC3)cc2)CC1=O` (stereo not shown) [Compound 5-C, (E)-2-(2,6-Dioxopiperidin-3-yl)-5-(4-(2-(2-(2-(2-(4-((4′-(1-(ethoxyimino)propyl)-5′-hydroxy-3′-oxo-1′,2′,3′,6′-tetrahydro-[1,1′-biphenyl]-4-yl)oxy)piperidin-1-yl)ethoxy)ethoxy)ethoxy)ethyl)piperazin-1-yl)isoindoline-1,3-dione] was “+”; that for `CCO/N=C(\CC)C1=C(O)CC(c2ccc(OCCOCCN3CCC(CCCN4CCN(c5ccc6c(c5)C(=O)N(C5CCC(=O)NC5=O)C6=O)CC4)CC3)cc2)CC1=O` (stereo not shown) [Compound 5-D, (E)-2-(2,6-Dioxopiperidin-3-yl)-5-(4-(3-(1-(2-(2-((4′-(1-(ethoxyimino)propyl)-5′-hydroxy-3′-oxo-1′,2′,3′,6′-tetrahydro-[1,1′-biphenyl]-4-yl)oxy)ethoxy)ethyl)piperidin-4-yl)propyl)piperazin-1-yl)isoindoline-1,3-dione] was “+”.
The value for `CCOC(=O)[C@@H](C)Oc1ccc(Oc2ccc(OCCOCCOCCOc3ccc4c(c3)C(=O)N(C3CCC(=O)NC3=O)C4=O)cn2)cc1` (stereo partly drawn) [Compound 6, Ethyl (2R)-2-(4-((5-(2-(2-(2-((2-(2,6-dioxopiperidin-3-yl)-1,3-dioxoisoindolin-5-yl)oxy)ethoxy)ethoxy)ethoxy)pyridin-2-yl)oxy)phenoxy)propanoate] was “+”; that for `CCOC(=O)[C@@H](C)Oc1ccc(Oc2ccc(OCCOCCOCCN3CCN(c4ccc5c(c4)C(=O)N(C4CCC(=O)NC4=O)C5=O)CC3)cn2)cc1` (stereo partly drawn) [Compound 6-A, Ethyl (2R)-2-(4-((5-(2-(2-(2-(4-(2-(2,6-dioxopiperidin-3-yl)-1,3-dioxoisoindolin-5-yl)piperazin-1-yl)ethoxy)ethoxy)ethoxy)pyridin-2-yl)oxy)phenoxy)propanoate] was “+”.
Regarding `CCOC(=O)[C@@H](C)Oc1ccc(Oc2ccc(OCCOCCN3CCC(CCCN4CCN(c5ccc6c(c5)C(=O)N(C5CCC(=O)NC5=O)C6=O)CC4)CC3)cn2)cc1` (stereo partly drawn) [Compound 6-B, Ethyl (2R)-2-[4-[[5-[2-[2-[4-[3-[4-[2-(2,6-dioxo-3-piperidyl)-1,3-dioxo-isoindolin-5-yl]piperazin-1-yl]propyl]-1-piperidyl]ethoxy]ethoxy]-2-pyridyl]oxy]phenoxy]propanoate], the “Plant Activity” value is “+”.
The value for `CCOC(=O)[C@@H](C)Oc1ccc(Oc2ccc(OC3CCN(CCOCCOCCOCCN4CCN(c5ccc6c(c5)C(=O)N(C5CCC(=O)NC5=O)C6=O)CC4)CC3)cn2)cc1` (stereo partly drawn) [Compound 6-C, Ethyl (2R)-2-(4-((5-((1-(2-(2-(2-(2-(4-(2-(2,6-dioxopiperidin-3-yl)-1,3-dioxoisoindolin-5-yl)piperazin-1-yl)ethoxy)ethoxy)ethoxy)ethyl)piperidin-4-yl)oxy)pyridin-2-yl)oxy)phenoxy)-propanoate] was “−”.
With `O=C(COc1ccc(Oc2cncc(C(F)(F)F)c2)cc1)NCCCOCCOCCOCCOCCOc1ccc2c(c1)C(=O)N(C1CCC(=O)NC1=O)C2=O` (stereo not shown) [Compound 7, N-[3-[2-[2-[2-[2-[2-(2,6-dioxo-3-piperidyl)-1,3-dioxo-isoindolin-5-yl]oxyethoxy]-ethoxy]ethoxy]ethoxy]propyl]-2-[4-[[5-(trifluoromethyl)-3-pyridyl]oxy]phenoxy]acetamide] the entry was “+”; with `O=C(COc1ccc(Oc2cncc(C(F)(F)F)c2)cc1)NCCCOCCOCCOc1ccc2c(c1)C(=O)N(C1CCC(=O)NC1=O)C2=O` (stereo not shown) [Compound 7-A, N-(3-(2-(2-((2-(2,6-Cioxopiperidin-3-yl)-1,3-dioxoisoindolin-5-yl)oxy)ethoxy)ethoxy)propyl)-2-(4-((5-(trifluoromethyl)pyridin-3-yl)oxy)phenoxy)acetamide], “−”.
The value for `O=C(COc1ccc(Oc2cncc(C(F)(F)F)c2)cc1)NCCCOCCOCCOCCOc1ccc2c(c1)C(=O)N(C1CCC(=O)NC1=O)C2=O` (stereo not shown) [Compound 7-B, N-(3-(2-(2-(2-((2-(2,6-dioxopiperidin-3-yl)-1,3-dioxoisoindolin-5-yl)oxy)ethoxy)ethoxy)ethoxy)propyl)-2-(4-((5-(trifluoromethyl)pyridin-3-yl)oxy)phenoxy)acetamide] was “+”; that for `O=C(COc1ccc(Oc2cncc(C(F)(F)F)c2)cc1)NCCCOCCOCCOCCOCCOCCOc1ccc2c(c1)C(=O)N(C1CCC(=O)NC1=O)C2=O` (stereo not shown) [Compound 7-C, N-(1-((2-(2,6-dioxopiperidin-3-yl)-1,3-dioxoisoindolin-5-yl)oxy)-3,6,9,12,15-pentaoxaoctadecan-18-yl)-2-(4-((5-(trifluoromethyl)pyridin-3-yl)oxy)phenoxy)acetamide] was “−”.
